In patent publication US20240398824A1, “Inhibition Of Rip Kinases For Treating Neurodegenerative Disorders” (The Johns Hopkins University, priority 2018, published 2024):

How the values were obtained:
BV-2 microglia = experiment: Real-time PCR of C1q, IL-6 and TNFα in AβO-activated BV-2 microglia; assay type: cell-based; set-up: key to mRNA levels of C1q / mRNA levels of IL-6 / mRNA levels of TNFα: relative expression normalized to GAPDH by 2^-ΔΔCt; PBS = 1
Experimental: Synthetic Abeta1-42 oligomers were generated as previously described (PMID: 27834631). Hydroxyfluroisopropanol (HFIP)-treated synthethic Abeta1-42 peptides (rPeptide, Bogart, GA, USA) were dissolved in dimethylsulfoxide (DMSO) and further diluted in phosphate-buffered saline (PBS) to obtain a 250 μM stock solution. The stock solution was incubated at 4° C. for at least 24 hours and stored at −80° C. until use. Before use, the solution was centrifuged at 12,000 g for 10 minutes and the supernatant was used as an oligomeric Aβ.
BV-2 microglial cells were cultured in DMEM media. 10^6 of BV-2 microglia in 6 well plate were treated with 2.5 μM of Abeta for 4 hrs. Total RNA from cultured cells was extracted with a RNA isolation kit (Qiagen, Valencia, CA, USA) following manufacturer's instructions. RNA concentration was measured spectrophotometrically using a NanoDrop 2000 (Thermo scientific). Subsequently, 2 μg of total RNA was reverse transcribed to cDNA using the High-Capacity cDNA Reverse Transcription System (Life Technologies, Grand Island, NY, USA). Comparative qPCR was performed using fast SYBR Green Master Mix (Life Technologies) and steponeplus real-time pcr system (Applied Biosystems, Foster City, CA, USA). The expression levels of target genes were normalized to the expression of GAPDH and calculated based on the comparative cycle threshold Ct method^−ΔΔ(2) Ct. (n=3)
To examine the effect of RIPK2 inhibition, 10^6 of BV-2 microglia in 6 well plate were preincubated with DMSO, GSK583 (1 μM, Medchemexpress), OD361 (1 μM, Calbiochem), or Sorafenib (1 μM) for one hour. For mRNA analysis, 5 μM of AβO was treated additional for 4 hours.

primary cortical neurons = experiment: Neuronal toxicity of astrocyte conditioned medium (AlamarBlue and LDH assays); assay type: cell-based, mouse; settings: cortical neurons 24 h with ACM, in words
Experimental: Primary neuron, microglia and astrocyte cell cultures, and α-synuclein PFE's treatment: NOD2 or RIPK2 knockout mice was obtained from Jackson Laboratories (Bar Harbor, ME, USA). Primary cortical neurons were prepared from embryonic day 15.5 pups and cultured in Neurobasal medium (Gibco) supplemented with B-27, 0.5 mM L-glutamine, penicillin and streptomycin (Invitrogen, Grand Island, NY, USA) on tissue-culture plates coated with poly-L-lysine. The neurons were maintained by changing the medium every 3-4 days. Primary microglial and astrocyte cultures were performed as described previously (PMID: 26157004). Whole brains from mouse pups at postnatal day 1 (P1) were obtained. […] The total protein concentration was determined using Pierce BCA protein assay kit (Thermo Scientific), and 15 or 50 μg ml^-1 of total protein was added to mouse primary neurons for the neuronal cell death assay. […] Cell viability was determined by two methods: The AlamarBlue (Invitrogen) and LDH assay (Sigma). Cell death was assessed through AlamarBlue assay, according to the manufacturer's protocol. LDH activity in culture medium, representing relative cell viability and membrane integrity, was measured using the LDH assay kit spectrophotometrically, following the manufacturer's instructions. […]

[1] = inhibitor 1 μM pretreatment, AβO 5 μM, in words

CC(C)(C)S(=O)(=O)c1ccc2nccc(Nc3n[nH]c4ccc(F)cc34)c2c1 [GSK583, 6-(tert-butylsulfonyl)-N-(5-fluoro-1H-indazol-3-yl) quinolin-4-amine]
mRNA levels of IL-6 (BV-2 microglia; BV-2 microglia preincubated 1 h with inhibitor 1 μM, then AβO 5 μM 4 h, PBS = 1 ± 0.08, Abeta alone 12.53 ± 0.59, ±SD): 4.89 ± 0.23
mRNA levels of C1q (BV-2 microglia; BV-2 microglia preincubated 1 h with inhibitor 1 μM, then AβO 5 μM 4 h, PBS = 1 ± 0.13, Abeta alone 3.7 ± 0.06, ±SD): 0.87 ± 0.14
mRNA levels of TNFα (BV-2 microglia; BV-2 microglia preincubated 1 h with inhibitor 1 μM, then AβO 5 μM 4 h, PBS = 1 ± 0.16, Abeta alone 16.19 ± 3.21, ±SD): 3.23 ± 0.27
microglial activation (BV-2 microglia; [1]): blocked microglial activation
release of multiple inflammatory mediators including C1q, IL-6 and TNFα (BV-2 microglia; [1]): significantly reduced
neuronal cell death induced by neurotoxic astrocytes (primary cortical neurons): significantly prevented neuronal cell death

COc1cc2ncnc(Nc3ccc(F)c(Cl)c3)c2cc1OCCCN1CCOCC1 [Gefitinib]
neuronal cell death induced by neurotoxic astrocytes (primary cortical neurons): significantly prevented neuronal cell death
